Laboratory results published in article PMC7822874, “Chemoprotective antimalarials identified through quantitative high-throughput screening of Plasmodium blood and liver stage parasites” (Scientific Reports, 2021).
Read-outs that look alike come from different tables or passages of the source.

What was measured:
[1] = tested on: P. berghei-ANKA-GFP-LucCON liver stage parasites in HepG2-A16-CD81EGFP cells; assay: P. berghei liver stage Pb-Luc assay, Method 1 (UCSD, 1536-well); format: cell-based, Plasmodium berghei; conditions: Plasmodium berghei, 48 h, P. berghei liver stage, average of 2 wells on a 1536 well plate; for activity at 1 µM: 1 µM compound treatment (10 mM stocks); for activity at 3 µM: 3 µM compound treatment (10 mM stocks)
[2] = tested on: Plasmodium falciparum Dd2 asexual blood stage parasites; assay: microbe, parasite or virus in culture; set-up: species or system Plasmodium falciparum Dd2 in human erythrocytes; single determination (one 11-point concentration-response curve); conditions: Plasmodium falciparum, DD2, Erythrocyte, 72 h; read-out: AC50
HepG2-A16-CD81EGFP cells = conditions: average of 2 wells; for HepG2 1uM growth rep1 / HepG2 1uM growth rep2: HepG2, 1 µM compound treatment (10 mM stocks); for HepG2 1uM growth rep1 / HepG2 3uM growth rep1: replicate 1, normalized; for HepG2 1uM growth rep2 / HepG2 3uM growth rep2: replicate 2, normalized; for HepG2 3uM growth rep1 / HepG2 3uM growth rep2: HepG2, 3 µM compound treatment (10 mM stocks)
[3] = replicate 1, normalized, read-out: PbLuc 1uM growth rep1
[4] = replicate 2, normalized, read-out: PbLuc 1uM growth rep2
[5] = replicate 1, normalized, read-out: PbLuc 3uM growth rep1
[6] = replicate 2, normalized, read-out: PbLuc 3uM growth rep2

| SMILES | activity at 1 µM [1, 3] | activity at 1 µM [1, 4] | activity at 3 µM [1, 5] | activity at 3 µM [1, 6] | AC50 [2] | HepG2 1uM growth rep1 (HepG2-A16-CD81EGFP cells) | HepG2 1uM growth rep2 (HepG2-A16-CD81EGFP cells) | HepG2 3uM growth rep1 (HepG2-A16-CD81EGFP cells) | HepG2 3uM growth rep2 (HepG2-A16-CD81EGFP cells) |
| --- | --- | --- | --- | --- | --- | --- | --- | --- | --- |
| N#Cc1c(N2CCN(c3ccc(F)cc3)CC2)nc(N)c2c(N)nc3c(c12)CC(=O)N3C1CC1 [MLS001003889-01] | 114% | 88% | 44% | 56% | 668 nM | 108% | 97% | 85% | 94% |
| COc1cccc2sc(N3CCN(C(=O)c4ccc([N+](=O)[O-])o4)CC3)nc12 [MLS001234267-01] | 111% | 94% | 69% | 79% | 4730 nM | 103% | 96% | 94% | 93% |
| COc1cccc(-c2c(C#N)c(N)nc3c2c(C)nn3-c2ccccc2)c1O [MLS001214341-01] | 118% | 95% | 106% | 118% | 1500 nM | 104% | 95% | 90% | 91% |
| Nc1nonc1-n1nnc(C(=O)N/N=C/c2ccc(Br)cc2)c1-c1ccc2c(c1)OCO2 [MLS001142619-01] | 115% | 112% | 108% | 122% | 422 nM | 91% | 88% | 86% | 93% |
| COc1cc(C)cc(CN2CCC(Cc3ccccc3)CC2)c1O [MLS001178265-01] | 83% | 95% | 81% | 123% | 750 nM | 101% | 92% | 87% | 88% |
| COc1ccc([C@@]2(C(C)C)ON(c3ccccc3C(F)(F)F)C2=O)cc1 [MLS002206606-01] | 98% | 100% | 88% | 122% | 4220 nM | 102% | 93% | 83% | 85% |
| Cc1ccc(-c2c(C(=O)N/N=C/c3cccc(Cl)c3)nnn2-c2nonc2N)cc1 [MLS001139410-01] | 143% | 123% | 105% | 91% | 237 nM | 90% | 91% | 90% | 94% |
| Cc1ccnc(NC(=O)c2cccc(S(=O)(=O)N3CCCc4ccccc43)c2)c1 [MLS001159724-01] | 100% | 97% | 38% | 52% | 2370 nM | 101% | 95% | 90% | 89% |
| CN(C)Cc1c(O)ccc2oc(Cc3ccccc3)cc12 [MLS000039159-01] | 98% | 102% | 63% | 108% | 422 nM | 108% | 93% | 87% | 92% |
| Cc1ccc(C)c2sc(N3CCN(C(=O)c4ccc([N+](=O)[O-])o4)CC3)nc12 [MLS001234268-01] | 97% | 91% | 57% | 53% | 4730 nM | 104% | 96% | 90% | 99% |
